Entries after “also recorded” stand apart in the source; their conditions may differ.

Experiment [1] has as its system MOG35-55–antigen specific T-cells. The experiment in a line: In-vitro T-cell proliferative response (H3-thymidine incorporation). The class given is cell-based, mouse (C57Bl/6J). The following applies: peptide at 10μM. A general note: Uptake of a labelled nucleoside into DNA is a usual measure of proliferation.
For experiment [2], the system named is primary mouse bone marrow derived macrophages (BMDM). The experiment in a line: Cytokine secretion from TLR-ligand stimulated BM-derived macrophages (ELISA). The experiment is classed as cell-based, mouse (C57Bl/6J). The following applies: HTLV FP at 10μM, stimulated by LTA, LPS or PAM3CSK4 (1 μg/ml), n = 3. The procedure:
Mouse Femora and tibiae BM cells were isolated from C57Bl/6J mice and cultured in RPMI medium containing FBS (10%), L-glutamine (1%), sodium pyruvate (1%), Pen-strep (1%), and 10 ng/ml recombinant CSF-1 (Peprotech). At day 3, half the medium was replaced, and on day 7, cells were used for in vitro assay, in which 2*10^5 cells were plated per well in a 24-well plate.
Mouse Femora and tibiae BM cells were collected and cultured in RPMI medium containing FBS (10%), L-glutamine (1%), sodium pyruvate (1%), Pen-strep (1%), and 10 ng/ml recombinant CSF-1 (Peprotech). On day 7, cells were stimulated by either (i) LTA, (ii) LPS, or (iii) PAM3CSK4 (1 μg/ml), in the presence of the HTLV FP at 10μM. Media was collected either 5 hours following activation (for TNF-α detection) or 22 hour following activation (for IL-6 detection) and secretion levels were determined according to standard protocols from R&D systems.
Supplementary file ppat.1007044.s002.tif: S2 Fig BM-derived macrophages activation is not affected by HTLV FP treatment. […] Media was collected either 5 hours following activation (for TNF-α detection) or 22 hour following activation (for IL-6 detection) and cytokines secretion was measured by ELISA assay. […]

For a further experiment, the system named is C57BL/6 female mice. The experiment in a line: MOG35-55-induced experimental autoimmune encephalomyelitis (EAE). The experiment is classed as in vivo, mouse. The procedure:
(A-B) MOG35-55–antigen specific T-cells were activated by irradiated MOG35-55 presenting APCs, in the presence of HTLV FP or HTLV Scr at 10μM. (A) The proliferative responses were assessed by H^3-thymidine incorporation assay, and normalized to the proliferation of non-activated T-cells. The data is presented as mean inhibition of proliferation. n = 12. (B) IFN-γ was measured by ELISA assay. n = 12. (C-D) EAE was induced in C57BL/6 female mice that were treated with a single dose of HTLV FP, HTLV Scr or vehicle. […] (C) Direct clinical measurement of EAE phenotype in a 5-point scale with increased disease symptoms correlating with higher score value. The data is presented as mean EAE clinical score. (D) Mice were weighed the day before EAE induction, and the change (as a percentage) in weight was recorded. The data is presented as mean change from the initial weight. One-way ANOVA was used for statistical analysis. ^a HTLV FP ≠ Vehicle; ^b HTLV FP ≠ Vehicle & HTLV Scr; ^c HTLV FP ≠ HTLV Scr. ^a,b,cP<0.05. (E) Spleenocytes were harvested at 26 DPI and stimulated using MOG35-55. The proliferative responses were assessed by H^3-thymidine incorporation assay and normalized to the proliferation of non-activated T-cells. The data is presented as counts per minute (CPM). n = 7. (F-G) Spleenocytes were harvested at 26 DPI and stimulated using MOG35-55. Media was collected 48 hours following activation and secretion of IFN-γ and IL4 was measured by ELISA assay. […] One-way ANOVA was used for statistical analysis. *P<0.05;**P<0.01;***P<0.001; ns, not significant.
EAE was induced in 9-week-old wild type and homozygous C57BL/6 female mice (Harlan Laboratories Israel/ Weizmann Institute animal facilities) by injecting a peptide comprising residues 35–55 of mouse myelin oligodendrocyte glycoprotein (MOG35–55; PolyPeptide Laboratories, Strasbourg, France). Mice were injected subcutaneously above the lumbar spinal cord with 100 μl of emulsion containing 200 μg/mouse of the encephalitogenic peptide in complete Freund’s adjuvant (BD-Difco) enriched with 250 μg/mouse of heat-inactivated Mycobacterium tuberculosis (BD-Difco) at 0 days post-induction (DPI). The HTLV FP was dissolved in PBS and added to the emulsion (1mg/kg). Pertussis toxin (Enzo Life Sciences) at a dose of 300 ng per mouse was injected intraperitoneally immediately after the encephalitogenic injection, as well as at […]. EAE disease was scored using a five-point grading with 0 for no clinical disease; 1, tail weakness; 2, paraparesis (incomplete paralysis of one or two hindlimbs); 3, paraplegia (complete paralysis of one or two hindlimbs); 4, paraplegia with forelimb weakness or paralysis; 5, moribund or dead animals. The mice were examined daily.
EAE was induced in C57BL/6 female mice that were either treated with a single dose of HTLV FP or vehicle. […] (A) Direct clinical measurement of EAE phenotype in a 5-point scale with increased disease symptoms correlating with higher score value. The data is presented as mean EAE clinical score. (B) Mice were weighed the day before EAE induction, and the change (as a percentage) in weight was recorded. The data is presented as mean change from the initial weight. Student’s t-test was used for statistical analysis. *P<0.05; **P<0.01;***P<0.001. (TIF) Click here for additional data file.

Turning to “AVPVAVWLVSALAMGAGVAGGITGSMSLASGKS [HTLV FP, gp21 fusion peptide of HTLV-1, MT-2 isolate]”, the “inhibition of T-cell proliferation, activation by PMA and Ionomycin” value in experiment [1] (50ng/mL PMA with 1μM ionomycin, n = 12) is given as “inhibited T-cell proliferation induced at all three levels of activation with equal potency”. Moreover, the “inhibition of T-cell proliferation, activation by antibodies against CD3 and CD28” value in experiment [1] (CD3 and CD28 antibodies 2μg/ml, n = 12) was “inhibited T-cell proliferation induced at all three levels of activation with equal potency”. Also, the “inhibition of T-cell proliferation, activation by MOG35-55 presenting APCs” value in experiment [1] (irradiated MOG35-55 presenting APCs, mean inhibition of proliferation, n = 12, 10 µM) was “inhibit T-cell proliferation with equal potency to that of HIV’s FP and significantly stronger than the BLV FP; also recorded: inhibited T-cell proliferation induced at all three levels of activation with equal potency; also recorded: inhibited both T-cell proliferation and IFN-γ secretion with higher potency than the HTLV Scr; also recorded: inhibit T-cell proliferation with higher potency than HTLV FP9-22 and HTLV FP14-22”. Besides, in experiment [2] (media 5 hours following activation), the “TNFα secretion from BMDM” value is reported as “had no effect on cytokine secretion”. Further, the “IL6 secretion from BMDM” value in experiment [2] (media 22 hour following activation) was “had no effect on cytokine secretion”. Moreover, in the experiment on C57BL/6 female mice (additional experiment, S5 and S6 Movies), the “clinical symptoms of a cage of treated mice at DPI 17” value is on record as “mild clinical symptoms”. In the experiment with C57BL/6 female mice (additional experiment, S6 Movie), the “mice exhibiting no clinical manifestation at DPI 17” value is 3 out of 5. Further, the “clinical symptoms of a cage of treated mice at DPI 9” value in the experiment with C57BL/6 female mice (initial experiment, S3 Movie) was “no observed clinical symptoms”. For the same sequence, the “mice exhibiting mild clinical symptoms at DPI 14” value in the experiment on C57BL/6 female mice (initial experiment, S4 Movie, rest with no observed clinical signs) was 1 out of 5. Also, the “EAE clinical symptoms, initial experiment” value in the experiment on C57BL/6 female mice (single dose 1mg/kg added to the MOG35-55/CFA emulsion, vs vehicle, terminated at 14 DPI, 5-point scale) is reported as “only mild clinical symptoms”. The “EAE clinical signs, additional experiment” value in the experiment on C57BL/6 female mice (single dose 1mg/kg, HTLV FP, HTLV Scr or vehicle, period 11 to 16 DPI, 5-point scale) was “only mild clinical symptoms and weight loss”. The “locomotory behavior, initial experiment” value in the experiment with C57BL/6 female mice (single dose 1mg/kg, S3 and S4 Movies) is reported as “most of the HTLV FP treated mice exhibited normal locomotory behavior”. The “locomotory behavior, additional experiment” value in the experiment with C57BL/6 female mice (single dose 1mg/kg, S5 and S6 Movies) is “better locomotory behavior than the HTLV Scr treated mice”. Further, the “weight change, initial experiment” value in the experiment with C57BL/6 female mice (single dose 1mg/kg, change from initial weight) is “only by minor weight fluctuations”. Besides, the “weight loss, additional experiment” value with C57BL/6 female mice (single dose 1mg/kg, period 11 to 16 DPI) is “only mild clinical symptoms and weight loss”. For the same sequence, in the experiment on C57BL/6 female mice (single dose 1mg/kg, vehicle-treated mice first observed at 8 DPI), the “first observation of clinical symptoms, initial experiment” value is 11 DPI.

These data come from publication PMC5955599, “The HTLV-1 gp21 fusion peptide inhibits antigen specific T-cell activation in-vitro and in mice” (PLoS Pathogens, 2018).
